According to publication PMC12350126, “A novel carboxamide bromodomain inhibitor attenuates osteoarthritis via epigenetic repression of NF-κB and MAPK signaling” (Frontiers in Immunology, 2025):

Legend:
[1] = tested on: mouse primary articular chondrocytes; assay: Chondrocyte viability by lactate dehydrogenase (LDH) assay; assay type: cell-based; conditions: 12 h, NCD 0, 10, 20, 50, 100 µM, JQ1 different concentrations
BRD2 (BD1 + BD2) = target: T1, BRD2 (BD1 + BD2) (Homo sapiens, UniProt P25440); assay: TR-FRET assay, BRD2 (BD1 + BD2); conditions: lower signal = stronger binding
T1 construct: kits specific for BRD2 (BD1 + BD2); purchased BPS Bioscience
Description: TR-FRET assays were conducted using kits specific for BRD2 (BD1 + BD2), BRD3 (BD1 + BD2), and BRD4 (BD1 + BD2) obtained from BPS Bioscience (San Diego, CA, USA). Bromodomain ligands were diluted in water, and master mixes were prepared by combining the diluted ligands with 1× BRD Homogeneous Assay Buffer. Thawed BRD proteins were also diluted with the same buffer. For each assay, 1.5 μL of the master mix was dispensed into wells of a microplate (Labcyte, San Jose, CA, USA), followed by the addition of 5 μL of diluted BRD protein to initiate the reaction. Plates were incubated at 20–22°C for 30–60 min. Subsequently, glutathione (GSH) acceptor beads and streptavidin-conjugated donor beads (both from PerkinElmer, Waltham, MA, USA) were diluted in 1× BRD Homogeneous Detection Buffer 1. Next, 10 μL of the acceptor bead solution was added to each well and incubated at 18°C for 30 min, followed by the addition of 10 μL of donor bead solution and a further incubation at 18°C for 15–30 min. Alpha particle counts were measured using an EnVision 2105 multimode plate reader (PerkinElmer).

[2] = tested on: DMM-induced OA in C57BL/6J mice; assay: DMM-induced OA mouse model, intra-articular injection; assay type: in vivo
Description: (§1) All experiments were independently performed with at least three biological replicates to ensure reproducibility. For in vivo studies, animals were randomly assigned to treatment or control groups. To create a DMM-induced OA model, DMM surgery was performed on 12-week-old male C57BL/6J mice, following a previously reported protocol ([26]). Subsequently, NCD was either orally administered or injected in mice; the NCD (50 mg/kg) was orally administered on alternate days 4 weeks after DMM, whereas IA knee injection of NCD (10 μg) was administered once a week after 4 weeks. The mouse knee joint was processed for histological analysis 10 weeks after surgery. All experiments were independently performed with at least three biological replicates to ensure reproducibility. For in vivo studies, animals were randomly assigned to treatment or control groups. For in vitro experiments, cells were plated using a randomized layout across multi-well plates to avoid positional effects and ensure unbiased treatment assignment
(§2) All histological samples were prepared independently by two researchers. Cartilage destruction was evaluated based on Safranin O staining and scored using the OA Research Association International (OARSI) grading system ([29]). Additionally, all histological samples were analyzed through osteophyte maturity scoring and subchondral bone plate (SBP) thickness. Osteophyte maturity was scored as described previously ([30]). Briefly, the scoring was as follows: 0 = none, 1 = predominantly cartilaginous, 2 = mixed cartilage and bone with active vascular invasion and endochondral ossification, 3 = predominantly bone. SBP thickness was measured to analyze subchondral bone sclerosis. All experiments were independently performed over at least three replicates. […] For each sample, measurements were performed on serial sections, and the mean value was calculated for analysis. The samples were […] by treating with 0.5 M ethylenediamine tetraacetic acid (pH 8.0) for 2 weeks. Next, mouse knee joint samples were fixed using 4% paraformaldehyde and embedded in paraffin. The paraffin-embedded samples were cut into 5-μm sections and fixed on glass slides. The tissue sections were then hydrated using a graded ethanol series, which removed paraffin and xylene. Mouse knee joint sections were immunohistochemically analyzed using anti-Mmp3 (ab52915, Abcam, Cambridge, UK), anti-Mmp13 (ab51072, Abcam), and anti-Cox2 (66351-I-Ig, ProteinTech, Rosemont, ILllinois, USA).

[3] = tested on: DMM-induced OA in C57BL/6J mice; assay: DMM-induced OA mouse model, oral administration; assay type: in vivo
Description: as §1, §2

BRD2 BD1 = target: T2, BRD2 BD1 (Homo sapiens, UniProt P25440); assay: Biosensor binding kinetics assay (Octet), BRD2 BD1
T2 construct: biotinylated BRD2 BD1; biotin (biotinylated protein); made in house; host or cells: Escherichia coli BL21(DE3)
Description: (§3) Binding kinetics were assessed using the Octet® R2 system (Sartorius, Göttingen, Germany). Superstreptavidin biosensors were loaded with biotinylated BRD2 BD1, BRD2 BD2, BRD3 BD1, BRD3 BD2, BRD4 BD1, BRD4 BD2, or biotin alone (as a negative control) in PBST buffer (phosphate-buffered saline containing 0.02% Tween 20 and 5% DMSO). The sensors were then dipped into compound solutions for 10 min. To evaluate association kinetics (kon), each sensor was exposed to serial dilutions of the protein for 180 s, followed by dipping them into PBST buffer to assess dissociation kinetics (koff). For control, a separate sensor loaded with the compound was dipped into PBST alone. Competition binding assays were performed by exposing the compound-loaded sensor to mixtures of proteins and test compounds.

BRD3 BD1 = target: T3, BRD3 BD1 (Homo sapiens, UniProt Q15059); assay: Biosensor binding kinetics assay (Octet), BRD3 BD1
T3 construct: biotinylated BRD2 BD1, BRD2 BD2, BRD3 BD1; biotin (biotinylated protein); made in house; host or cells: Escherichia coli BL21(DE3)
Description: as §3

[4] = tested on: PGE2 production in IL-1β-treated mouse articular chondrocytes; assay: PGE2 ELISA in IL-1β-treated chondrocytes; assay type: cell-based; conditions: NCD 10, 50, 100 µM, dose-dependent
Description: NCD was supplied by Benobio Co (Gyeonggi-do, Korea), and IL‐1β was purchased from GenScript (Piscataway, NJ, USA). NCDs were dissolved in phosphate-buffered saline (PBS) for oral administration or IA injection.
PGE2 expression was determined by enzyme-linked immunosorbent assay (ELISA) using a PGE2 Immunoassay Kit (R&D Systems, Minneapolis, MN, USA). The levels of PGE2 in the conditioned medium of articular chondrocytes were determined. Collagenase activity was measured using a VICTOR X3 Microplate Reader (PerkinElmer, Waltham, MA, USA) at the excitation/emission wavelengths of 490/530 nm following the protocol provided by the manufacturer.

[5] = IA injection 10 μg once a week from 4 weeks after DMM, 10 weeks after surgery, vs PBS
[6] = oral 50 mg/kg on alternate days from 4 weeks after DMM, 10 weeks after surgery, vs vehicle

T2 sequence (P25440 74-180 limits assumed): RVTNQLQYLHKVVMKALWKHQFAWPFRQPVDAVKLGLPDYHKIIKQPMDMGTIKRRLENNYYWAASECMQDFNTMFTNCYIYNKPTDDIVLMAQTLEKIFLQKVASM
T1 sequence (P25440 65-459 limits assumed): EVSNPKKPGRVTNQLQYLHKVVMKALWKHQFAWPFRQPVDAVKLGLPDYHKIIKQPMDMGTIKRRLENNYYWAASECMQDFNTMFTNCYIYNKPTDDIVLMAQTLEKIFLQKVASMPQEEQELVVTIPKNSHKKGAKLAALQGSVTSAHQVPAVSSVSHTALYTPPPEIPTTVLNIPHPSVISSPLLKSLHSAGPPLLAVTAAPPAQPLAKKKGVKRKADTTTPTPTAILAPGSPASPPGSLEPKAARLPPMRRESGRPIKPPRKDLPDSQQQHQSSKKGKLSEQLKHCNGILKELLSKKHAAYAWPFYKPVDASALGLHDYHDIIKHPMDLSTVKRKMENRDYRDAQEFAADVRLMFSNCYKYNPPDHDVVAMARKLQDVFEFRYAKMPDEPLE
T3 sequence (Q15059 34-140 limits assumed): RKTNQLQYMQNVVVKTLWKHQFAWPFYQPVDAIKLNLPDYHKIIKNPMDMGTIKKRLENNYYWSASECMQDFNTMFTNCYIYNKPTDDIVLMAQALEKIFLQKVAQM

SMILES: CNC(=O)CC1C(=O)NCCN1Cc1ccc(-c2ccccc2-c2cccc3c2CN(C)C3=O)o1 (centres unmarked) [NCD, N-methyl-2-(1-((5-(2-(2-methyl-1-oxoisoindolin-4-yl)phenyl)furan-2-yl)methyl)-3-oxopiperazin-2-yl)acetamide]
- Cell viability / cytotoxicity (LDH assay) [1]: no significant cytotoxic effects
- TR-FRET value (BRD2 (BD1 + BD2)): 96511 RLU
- OARSI grade [2, 5]: significant reduction
- Osteophyte maturity [2, 5]: significant reduction
- SBP thickness [2, 5]: significant reduction
- Expression of Mmp3, Mmp13 and Cox2 in knees (immunohistochemistry) ([2]; IA injection 10 μg, DMM mice): lower expression levels
- NITEGE expression ([2]; IA injection 10 μg, DMM mice): reduced
- Type II collagen levels (immunohistochemistry) ([2]; IA injection 10 μg, DMM mice): partially preserved
- OARSI score [3, 6]: decrease
- Osteophyte maturity [3, 6]: decrease
- SBP thickness [3, 6]: decrease
- Expression of Mmp3, Mmp13 and Cox2 in articular cartilage (immunohistochemistry) ([3]; oral 50 mg/kg, DMM mice): markedly reduced expression levels
- NITEGE levels (aggrecan degradation neoepitope) ([3]; oral 50 mg/kg, DMM mice): significantly reduced
- Type II collagen (immunohistochemistry) ([3]; oral 50 mg/kg, DMM mice): restored
- Kd (BRD2 BD1): 26 nM
- Kd (BRD3 BD1): > 1000 nM
- PGE2 production [4]: significantly decreased
